The record followed here is article PMC11428279, “Exploring Structure–Activity Relationships and Modes of Action of Laterocidine” (ACS Central Science, 2024).

One series deals with E. cloacae. It counts as cell-based. The method, then:
(§1) MICs for laterocidine and its various analogues were determined by broth microdilution[49] for the following polymyxin-susceptible ATCC and clinical isolates: P. aeruginosa FADDI-PA022, FADDI-PA001, FADDI-PA025, FADDI-PA070, FADDI-PA060; A. baumannii FADDI-AB134, FADDI-AB034, FADDI-AB030, FADDI-AB174, FADDI-AB241; K. pneumoniae FADDI-KP032, FADDI-KP022, BM1, FADDI-KP065, FADDI-KP064, FADDI-KP003; and E. cloacae FADDI-EC001, FADDI-EC003, and FADDI-EC006. Experiments were performed with cation-adjusted Mueller–Hinton broth (CAMHB) in 96-well polystyrene microtiter plates. Wells were inoculated with 100 μL of bacterial suspension prepared in CAMHB (containing ∼10^6 CFU/mL) and 100 μL of CAMHB containing increasing concentrations of polymyxins (0–32 μg/mL). MIC measurements were performed in duplicate, with the MIC being the lowest concentration at which visible growth was inhibited following 18–20 h of incubation at 37 °C. Bacterial killing kinetics was investigated over 24 h as described previously.[50]

Series [1] relates to Gram-negative strains of P. aeruginosa, A. baumannii, K. pneumoniae, and E. cloacae. It counts as cell-based. On the procedure:
as §1

For a further series, the system named is K. pneumoniae. It counts as cell-based. The method, then: as §1
For the next series, the system named is P. aeruginosa. It counts as cell-based. The method, then: as §1
Series [2] deals with P. aeruginosa PAO1. Kind of series: MIC. In kind it is cell-based. As to conditions: polymyxin-susceptible reference strain.
Series [3] concerns P. aeruginosa PAO1R. Kind of series: MIC. It counts as cell-based. As to conditions: polymyxin-resistant paired strain of PAO1.
For series [4], the system named is A. baumannii 5075 (wild type). Kind of series: MIC. It counts as cell-based.
A further series relates to A. baumannii 5075R. In kind it is cell-based. As to conditions: lipid A modified with phosphoethanolamine.
In a further series the test system is A. baumannii 5075D. In kind it is cell-based. As to conditions: lacks lipid A in the outer membrane.
In series [5] the test system is P. aeruginosa PAO1R. Kind of series: Static time-kill study. In kind it is cell-based. To be noted: 8 × MIC, over 24 h. The method, then:
as §1

In series [6] the test system is P. aeruginosa PAO1. Kind of series: Static time-kill study. In kind it is cell-based. On the procedure:
as §1

The test system of series [7] is P. aeruginosa PAO1. Kind of series: Flow cytometry of bacterial membrane integrity, respiration, polarity and oxidative stress. In kind it is cell-based. To be noted: 1 h exposure. The method, then: The live cell impermeant fluorophore propidium iodide (PI) (Sigma-Aldrich, Castle Hill, NSW, Australia) was used to assess loss of membrane integrity (Ex/Em 488/660–690 nm) and the redox probe 5-cyano-2,3-ditolyl tetrazolium chloride (CTC) (Sigma-Aldrich, Castle Hill, NSW, Australia) used to assess loss of cellular respiration (Ex/Em 450/630 nm). […] Intracellular oxidative stress was measured using CR-G (CellROX Green) (Sigma-Aldrich, Castle Hill, NSW, Australia, Ex/Em 488/660–690 nm).[58] Appropriately diluted samples (600 μL) were stained separately with 12.5 μM PI, 2.5 mM CTC, 6 μM DiBAC, and 2.5 μM CR-G. Samples stained with both PI and DiBAC were incubated for 2 min and immediately analyzed. Samples stained with both CTC and CR-G were incubated for 45 min at RTP, and excess dye was pelleted out prior to analysis. Fluorescence intensity data were analyzed and log transformed using the NovoExpress software (V2.1, ACEA Biosciences, USA).[34]
Background: A flow cytometer gives signals particle by particle.

The next series relates to E. coli O111:B4 LPS. Kind of series: 1H NMR titration with LPS. It counts as binding. To be noted: 23 °C, 50 mM acetate buffer pH 4.5, 1.5 mM peptide, 16 μL of 10 mg/mL LPS. On the procedure:
NMR samples contained 0.75–2.0 mM laterocidine in a 50 mM acetate (d6) NMR buffer (90% H2O:10% D2O, pH 4.5 or ∼100% D2O, pH 4.5). Experiments were recorded on a Bruker 600 MHz NMR spectrometer equipped with a cryoprobe and Z axis gradient. 2D ^13C HSQC and 2D ^13C–^1H H2BC were recorded using gradients for coherence selection and sensitivity enhancement and additional presaturation of the solvent signal when required. 1D ^1H, 2D ^1H–^1H NOESY (with mixing times 35–200 ms), and 2D ^1H–^1H TOCSY experiments (mixing time 70 ms) used an excitation sculpting, DPFGSE sequence for water suppression.[51] Typical acquisition times for the 2D ^1H–^1H NOESY experiments were 524 ms (t2) and 40 ms (t1). For transferred LPS experiments, NMR data was recorded at 23–25 °C which was optimized for the least amide peak overlap. 2D ^1H–^1H NOESY spectra for the free peptide were also recorded at 23 °C. Spectra were processed with nmrPipe[52] or Topspin and analyzed with Xeasy[53] or NMRFAM Sparky.[54] Backbone assignments were made using the standard sequential NOE based assignment strategy using 2D ^1H–^1H TOCSY and 2D ^1H–^1H NOESY data. Side chain assignments were further aided using the 2D ^13C–^1H H2BC experiment. 1D ^1H STD experiments were recorded using excitation sculpting for water suppression. […]

The subject of a further series is female Swiss mice. Kind of series: Acute toxicity in mice (maximum tolerable dose). It counts as in vivo. To be noted: intravenous bolus via lateral tail vein, free base, N = 3. On the procedure: (§2) All animal studies were approved by the Monash University Animal Ethics Committee and involved female Swiss mice (22–28 g, 7-week-old) housed in microisolators within a PC2 animal laboratory. Mice were kept under a 12/12 h dark/light cycle at 20–24 °C and 50–70% ambient humidity.
For the acute toxicity studies, peptide 11 and laterocidine solutions were prepared in 0.9% saline and stored at 4 °C before use. All mice were administered an intravenous bolus of one peptide (mg/kg free base) via a lateral tail vein (≤0.1 mL). Following the injection, mice were released back into their respective home cages and individually monitored for 24 h for signs of clinical toxicity. Mice displaying any signs of toxicity were humanely euthanized according to the recommended Euthanasia/Humane Experimental End point Criteria.

Series [8] deals with P. aeruginosa FADDI-PA070. Kind of series: Neutropenic murine bloodstream infection model. As to conditions: 8 mg/kg iv (free base) 2 h postinoculation, neutropenic mice, 4 h time point, N = 3, mean. In kind it is in vivo, P. aeruginosa in mice. The method, then: as §2
The neutropenic bloodstream infection model was undertaken as previously described.[39] Mice were rendered neutropenic through intraperitoneal injections of cyclophosphamide administered 4 days (150 mg/kg) and 1 day (100 mg/kg) prior to inoculation. Bloodstream infection was established by administering a 50 μL bolus of early log-phase bacterial suspension (4 × 10^8 CFU/mL). Laterocidine, peptide 11, and polymyxin B solutions were prepared in sterile saline at a concentration of 1 mg/mL (free base). Two hours postinoculation, mice (n = 3) were injected intravenously with either polymyxin B at 4 mg/kg (free base), peptide 11 at 8 mg/kg (free base), laterocidine at 8 mg/kg (free base), or saline (control mice). Blood was collected immediately after (0 h) and 4 h after drug administration, serially diluted with sterile saline, and appropriately diluted samples manually plated on nutrient agar prior to overnight incubation at 37 °C. Colonies were counted manually and the bacterial load (log10 CFU/mL) in the blood of each mouse calculated. In vivo efficacy was calculated as the difference between the log10 CFU/mL blood values of treated and control mice 4 h postdosing (Δlog10 CFU/mL blood = log10 [treated] CFU/mL blood–log10[control] CFU/mL blood).[54]

Setting [9] is: listed as Laterocidine (peptide 1).

In brackets after ≈: the same amount, converted by molar mass. Like-named read-outs stand apart in the source and are kept apart here. Bridge positions count the residues as written; N and C are the ends. Square brackets hold non-standard residues; d marks the D form. Peptide text beside a SMILES is read from it. * marks the point of attachment. Octanoyl(7-Me) = CC(C)CCCCCC(=O)*; dOrn = NCCC[C@@H](N)C(=O)O; Orn = NCCC[C@H](N)C(=O)O Some results are limits rather than exact numbers.

For `CC[C@H](C)[C@@H]1NC(=O)[C@@H](NC(=O)[C@H](Cc2c[nH]c3ccccc23)NC(=O)[C@@H](CCCN)NC(=O)CNC(=O)[C@H](CCCN)NC(=O)[C@@H](CCCN)NC(=O)[C@@H](Cc2c[nH]c3ccccc23)NC(=O)[C@@H](Cc2ccc(O)cc2)NC(=O)[C@@H](CO)NC(=O)CCCCCC(C)C)[C@@H](C)OC(=O)CNC(=O)CNC(=O)[C@H](CC(N)=O)NC1=O` [Laterocidine] ({Octanoyl(7-Me)}-[dS][dY][dW][dOrn][Orn]G[dOrn]WTINGG; ester 9-C), the “MICs against E. cloacae (range over strains)” value against E. cloacae is 1 to 2 µg/mL. In addition, the “MICs against the MDR strains (range)” value in series [1] was in the range of 1 to 16 µg/mL. Besides, the “MICs against K. pneumoniae (range over strains)” value against K. pneumoniae lay in the range of 1 to 4 µg/mL. Further, the “MICs against P. aeruginosa (range over strains)” value against P. aeruginosa was 4 to 8 µg/mL. Further, the “MIC, P. aeruginosa PAO1” value in the series with P. aeruginosa PAO1 [2] turned out to be 8 µg/mL (≈ 4.98 µM). Besides, the “MIC, P. aeruginosa PAO1R” value in the series with P. aeruginosa PAO1R [3] amounted to 8 µg/mL (≈ 4.98 µM). Further, the “MIC, A. baumannii 5075 S” value in [4] stood at 8 µg/mL (≈ 4.98 µM). Besides, the “MIC, A. baumannii 5075 R” value in the series on A. baumannii 5075R is 32 µg/mL (≈ 19.9 µM); with A. baumannii 5075R (setting [9]) it was over 32 µg/mL. Further, the “MIC, A. baumannii 5075 D” value is 32 µg/mL (≈ 19.9 µM) against A. baumannii 5075D and over 32 µg/mL in the series on A. baumannii 5075D (setting [9]). Further, the “time-kill outcome against P. aeruginosa PAO1R” value with P. aeruginosa PAO1R [5] is listed as “substantial regrowth occurring at all concentrations”. The “regrowth at 24 h, P. aeruginosa PAO1” value in the series with P. aeruginosa PAO1 [6] (4 × MIC, 24 h) is listed as about 2 log 10 CFU/mL. Also, in the series with P. aeruginosa PAO1 [6] (8 × MIC, over 24 h), the “time-kill outcome against P. aeruginosa PAO1” value was “bacterial eradication was achieved at 24 h”. Moreover, the “membrane integrity (propidium iodide fluorescence)” value is “no loss of membrane permeability” in the series on P. aeruginosa PAO1 [7] (1 × MIC (2 μg/mL)) and “substantial increase in permeability” in the series with P. aeruginosa PAO1 [7] (8 × MIC (16 μg/mL)). The “metabolic activity (CTC fluorescence)” value with P. aeruginosa PAO1 [7] (1 × MIC (2 μg/mL)) is “unaffected”; in the series on P. aeruginosa PAO1 [7] (8 × MIC (16 μg/mL)) it was “markedly reduced”. Besides, the “intracellular oxidative stress (CellROX Green)” value in the series with P. aeruginosa PAO1 [7] (1 × and 8 × MIC) was “increase at both 1 × and 8 × MIC”. For the same molecule, the “membrane potential (DiBAC fluorescence)” value in the series with P. aeruginosa PAO1 [7] (1 × and 8 × MIC) is recorded as “extensive loss of membrane potential at each concentration”. Besides, the “binding affinity to LPS (line broadening in 1H NMR titration)” value in the series with E. coli O111:B4 LPS was “weak to moderate binding affinity”. In the series with female Swiss mice, the “maximum tolerable dose (MTD), Iv (Bolus)” value is on record as 13.2 mg/kg. The “Bacteria load in blood” value in series [8] (listed as Peptide 1) is 16.93%; in [8] (listed as peptide 1), 16.9%.
